Assay results published in ChEMBL document CHEMBL3588750 (Medchemcomm, 2014).

What was measured:
[1] = target: Somatostatin receptor type 4 (Homo sapiens, UniProt P31391); assay: Inhibition of radiolabeled somatostatin-14 binding to human recombinant SSTR4
[2] = target: Somatostatin receptor type 5 (Homo sapiens, UniProt P35346); assay: Inhibition of radiolabeled somatostatin-14 binding to human recombinant SSTR5
Sequence of Somatostatin receptor type 5 (P35346 whole entry): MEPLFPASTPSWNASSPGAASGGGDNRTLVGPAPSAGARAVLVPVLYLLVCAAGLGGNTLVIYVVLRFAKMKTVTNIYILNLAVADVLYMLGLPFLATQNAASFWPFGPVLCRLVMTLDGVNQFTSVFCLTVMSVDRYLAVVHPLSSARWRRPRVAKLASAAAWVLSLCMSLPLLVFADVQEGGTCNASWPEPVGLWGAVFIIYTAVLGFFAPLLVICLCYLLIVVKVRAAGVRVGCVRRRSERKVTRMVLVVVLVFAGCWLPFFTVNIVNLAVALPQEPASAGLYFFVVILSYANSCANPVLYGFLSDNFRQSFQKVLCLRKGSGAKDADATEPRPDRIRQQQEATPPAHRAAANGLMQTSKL

Sequence of Somatostatin receptor type 4 (P31391 whole entry): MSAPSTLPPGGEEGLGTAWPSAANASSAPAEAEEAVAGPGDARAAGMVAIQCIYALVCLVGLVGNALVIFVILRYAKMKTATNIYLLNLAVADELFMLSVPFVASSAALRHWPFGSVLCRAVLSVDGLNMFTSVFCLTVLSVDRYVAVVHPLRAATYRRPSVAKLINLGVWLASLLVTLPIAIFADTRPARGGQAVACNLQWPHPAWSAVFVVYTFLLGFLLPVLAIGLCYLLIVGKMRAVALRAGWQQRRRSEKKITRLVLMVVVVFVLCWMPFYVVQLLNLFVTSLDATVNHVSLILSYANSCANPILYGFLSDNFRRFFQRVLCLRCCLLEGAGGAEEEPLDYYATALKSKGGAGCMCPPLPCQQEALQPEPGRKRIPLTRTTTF

Row | Ki ([1]; read-out: Ki) | Ki [1] | Ki ([2]; read-out: Ki) | SMILES | Ki [2]
1 | – | Not Active | 34 µM | NCCCCC[C@@H]1[C@@H](O)[C@H](O)[C@@H](O)CN1Cc1ccc2ccccc2c1 | –
2 | 5.4 µM | – | 7.7 µM | CC(=O)O[C@H]1[C@H](OC(C)=O)[C@@H](CCCCCN)N(Cc2ccc3ccccc3c2)C[C@@H]1OC(C)=O | –
3 | 1.9 µM | – | 2 µM | NCCCCC[C@@H]1[C@@H](OCc2ccccc2)[C@H](OCc2ccccc2)[C@@H](OCc2ccccc2)CN1Cc1ccc2ccccc2c1 | –

Row | SMILES | Ki ([1]; read-out: Ki) | Ki [1] | Ki ([2]; read-out: Ki) | Ki [2]
4 | NCCCCCOC[C@@H]1[C@@H](O)[C@H](O)[C@@H](O)CN1CCc1c[nH]c2ccccc12 | 3.2 µM | – | – | Not Active
